Marks after values point to notes of the source that are not given here.
Legend:
[1] = tested on: MV4; 11-luc disseminated AML disease; test: MV4; 11-luc disseminated disease model, tumor response and survival; type: in vivo, mouse
Description: Subcutaneous tumor efficacy studies were performed using outbred athymic nu/nu mice approximately 6-8 weeks old (Charles River Laboratories, Hollister, Calif.). The efficacy study in the disseminated disease model was performed using immunodeficient NOD-SCID female mice approximately 7-8 weeks old (Jackson Laboratories, Bar Harbor, Me.). […] Routine animal care and assurance of welfare were as described above.
Human MV4; 11 acute myelogenous leukemia cells were obtained from American Tissue Culture Collection (catalog #CRL-9591, Rockville, Md.) and tested to be free of Mycoplasma sp. and murine viruses in the IMPACT1 PCR assay panel (RADIL, University of Missouri, Columbia, Mo.). For the disseminated disease model, a stable pool of MV4; 11 cells expressing the luciferase gene was received from Fangxian Sun at the Genomics Institute of the Novartis Research Foundation in San Diego, Calif. (MV4; 11-luc). The MV4; 11 cells were grown in Iscove's modified Dulbecco's medium (Mediatech Inc., catalog #15-016-CV) supplemented with 10% fetal bovine serum (JRH Biosciences, catalog #12003-1000M), 4 mM L-glutamine and 5 ng/mL recombinant human […] (GM-CSF) (R&D Systems, catalog #215-GM). MV4; 11-luc were grown in the same media, but with the addition of 2 micrograms/mL of puromycin for selection of luciferase expression. These cells were grown as suspension cultures, maintained at 37° C. in a humidified atmosphere containing 5% carbon dioxide. Cells were cultured for fewer than 10 passages prior to use. Cells were harvested at approximately 2 million cells/mL, and centrifuged at ˜800×g for 5 minutes at 4° C. and then resuspended in a cold HBSS (Mediatech Inc., catalog #21-021-CV) at a concentration of 25 million cells/mL (containing 50% Matrigel™, BD Biosciences, catalog #354234) for implantation subcutaneously (injection volume of 0.2 mL) or at a concentration of 100 million cells/mL for implantation intravenously (i.v.) via the tail vein (injection volume of 0.1 mL). Mice were irradiated with 3 gray for 3 minutes one day prior to the i.v. cell implant.
The compound IIa (free base) and SB-715992 (free base) were formulated in 20% Captisol for a dose volume of 8 mL/kg. Doses were adjusted to each animal's body weight.
For the efficacy evaluation in the disseminated disease model, female NOD-SCID mice received whole-body irradiation at 3 gray the day before tail vein injection of 10 million cells in 0.1 mL HBSS. Forty mice were randomized and enrolled on study 28 days post-implant, with a mean photon count (dorsal view+ventral view) of approximately 5×10^7 photons/second, as determined by bioluminescence imaging. Approximately 10 minutes prior to imaging, mice were injected i.p. with 150 mg/kg luciferin (Xenogen Corporation, Alameda, Calif.), followed by anesthetization with isoflurane. Photon emission was measured using a charge coupled device camera in the IVIS imaging system (Xenogen Corporation). Briefly, a gray-scale image of the mice was captured, followed by an overlay of a bioluminescence map representing the spatial distribution of photons detected from cleaved luciferin in the cancer cells expressing luciferase. Signal intensity was quantified using a customized version of the IGOR Pro version 4.09A Software (WaveMetrics, Inc., Lake Oswego, Oreg.) called Living Image version 2.50.2 (Xenogen). The sum of all detected photon counts from the dorsal+ventral views was determined. Bioluminescence of cancer cells in the animals was measured by imaging on designated days until the first mice developed hind limb paralysis due to disease burden, the main end point for when to humanely euthanize mice. The day of euthanasia for each mouse was recorded and the remaining percentage of mice surviving was plotted over time (Kaplan-Meier survival analysis). P values were calculated using the log-rank test (GraphPad Prism 4.0 software) to assess differences between treated and control groups (p<0.05 was considered significant). […]

[2] = tested on: primary blast cells from AML patients; test: Colony formation assay in methylcellulose containing medium, AML blasts; type: cell-based, human
Description: Primary blast cells from AML patients were tested for sensitivity to compound IIa as shown below. Frozen AML blasts from peripheral blood were obtained from AllCell LLC. (Emeryville, Calif.). Three frozen vials containing ˜1×10^7 PBMCs were purchased. Peripheral blood mononuclear cells (PBMCs) from three newly diagnosed AML patients with a high percentage of blasts (#06-188, 80%; #06-366, 88%; #06-503, 73%) were cultured for several weeks and treated with the KSP inhibitors. The vials were rapidly thawed and the cells were cultured in Iscove's DMEM supplemented with 10% FBS and the following cytokines all at 10 ng/ml: GM-CSF, G-CSF, SCF, IL-3, and IL-6 (all from R&D Systems). Three assays were performed on the cells as follows: • CellTiter-Glo® assay on AML blasts. PBMCs containing AML blasts were seeded in 96-well plates (5000/well) and treated with various concentrations of the compound IIa (10 pM to 10 nM) for 48 hours before cells survival was measured as described above. GI50 values (nM) were calculated as for cell lines. • Cell cycle analysis using propidium iodide staining. […] The DNA content of the fixed and stained cells was analyzed by the BD FACSCalibur flow cytometer using the CellQuest software. • Colony formation assay in methylcellulose containing medium. […] Colonies were counted under a microscope after 2 weeks. […]

## CC(C)(C)[C@H](c1nc(-c2cc(F)ccc2F)cn1Cc1ccccc1)N(CC[C@H](N)CF)C(=O)CO [Compound IIa]
[1]; 0.25 mg/kg, q4d × 3, i.v
  Median Day of Survival: 27 days
  Δ Tumor bioluminescence, Day 12: 4.3 × 10^8 photons/sec
  ΔT/ΔC, Day 12 (%): 46%
[1]; 0.25 mg/kg, q4d × 3, i.v, listed as COMPOUND IIa
  Median Day of Survival: 27** day
[1]; 0.5 mg/kg, q4d × 3, i.v
  Median Day of Survival: 31 days
  Regression, Day 12 (%): 9* %
  Δ Tumor bioluminescence, Day 12: −4.0 × 10^6 photons/sec
[1]; 0.5 mg/kg, q4d × 3, i.v, listed as COMPOUND IIa
  Median Day of Survival: 31** day
[1]; 1 mg/kg, q4d × 3, i.v.
  Median Day of Survival: 30 days
  Regression, Day 12 (%): 80* %
[1]; 1 mg/kg, q4d × 3, i.v, listed as COMPOUND IIa
  Median Day of Survival: 30** day
[2]; 0.5 nM and above, samples #06-366, #06-188, #06-503, 2 weeks
  colonies: absent
[2]; sample #06-366, 0.2 nM, 2 weeks
  number of colonies: markedly reduced
